Here are results for 2 compounds from PubChem BioAssay AID686936 (Broad Institute, 2013).

This assay has as its system LuxO (D47E) transcriptional regulator, Vibrio cholerae O395. As to the kind of experiment: PubChem AID 686936. To be noted: stronger effect = lower value.
Where [1] appears, read: PK/LDH coupled NADH A340, at 100 µM.
Setting [2] is: PK/LDH coupled NADH A340, rate, at 1 µM.
Setting [3] is: PK/LDH coupled NADH A340, rate, at 25 µM.

In the case of `Cc1ccc2cc3c(NC(=O)c4ccco4)nn(C)c3nc2c1`, the ATPase rate (delta OD340/min) is 0.00981 under setting [1], 0.0527 under setting [2] and 0.0182 under setting [3].
On the same counts, the results for `O=C(Nc1nnc(-c2ccc3c(c2)OCCO3)o1)C1CCCCC1` are 0.0424, 0.0644 and 0.0279.
